We go through 9 compounds from patent US20130079271A1, “REVERSED BIARYL SPIROAMINOOXAZOLINE ANALOGUES AS ALPHA2C ADRENERGIC RECEPTOR MODULATORS” (priority 2009, published 2013).

The test has as its target T1, α2C receptor (Homo sapiens, UniProt P18825).
T1 sequence (P18825 1-462): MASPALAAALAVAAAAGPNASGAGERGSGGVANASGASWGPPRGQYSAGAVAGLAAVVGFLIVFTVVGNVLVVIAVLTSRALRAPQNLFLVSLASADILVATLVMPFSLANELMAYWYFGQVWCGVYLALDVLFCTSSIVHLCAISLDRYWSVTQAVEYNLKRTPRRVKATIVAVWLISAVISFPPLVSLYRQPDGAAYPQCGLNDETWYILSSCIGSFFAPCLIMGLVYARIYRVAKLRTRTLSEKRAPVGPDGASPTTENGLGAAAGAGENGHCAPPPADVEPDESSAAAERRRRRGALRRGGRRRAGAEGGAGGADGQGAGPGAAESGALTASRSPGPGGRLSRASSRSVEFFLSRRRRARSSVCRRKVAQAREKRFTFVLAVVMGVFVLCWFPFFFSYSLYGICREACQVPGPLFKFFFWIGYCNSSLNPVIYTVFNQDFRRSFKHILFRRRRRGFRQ
As to the kind of experiment: Efficacy agonist activity (Emax, GTPγS assay) at α2C. The test is classed as biochemical. The conditions noted are these: by definition: efficacy at α2C ≧30% Emax (GTPγS assay); functionally selective if also efficacy at α2A ≦35% Emax. The method, then: Efficacy agonist activity values (Emax, GTPγS assay) for α2A and α2C were determined by following the general procedure detailed by Umland et. al (“Receptor reserve analysis of the human α2c-adrenoceptor using [^35S]GTPγS and cAMP functional assays” European Journal of Pharmacology 2001, 411, 211-221). For the purposes of the present invention, a compound is defined to be a specific or at least functionally selective agonist of the α2C receptor subtype if the compound's efficacy at the α2C receptor is ≧30% Emax (GTPγS assay) and its efficacy at the α2A receptor is ≦35% Emax (GTPγS assay). Additionally, for the purposes of this invention, a compound is defined to be an antagonist of the α2C receptor subtype if the compound's efficacy at the α2C receptor is <30% Emax (GTPγS assay) and the Ki at the α2C receptor subtype was <500 nM, preferentially <200 nM, and most preferentially <20 nM.
Consider `NC1=NCC2(CCc3c(cccc3-c3cncnc3)C2)O1` (racemic) [(±)-1], for which the “evaluated to be active or functionally selective agonists of the α2C receptor subtype” value is “active or functionally selective agonists”.

For the compound `CN1OC2(CCc3cccc(-c4cncnc4)c3C2)N=C1N` (racemic) [(±)-5B], the “evaluated to be active or functionally selective agonists of the α2C receptor subtype” value is “active or functionally selective agonists”.

Regarding `CN1OC2(CCc3ccc(-c4cncnc4)cc3C2)N=C1N` (racemic) [(±)-5F], the “evaluated to be active or functionally selective agonists of the α2C receptor subtype” value is listed as “active or functionally selective agonists”.

Turning to `CN1OC2(CCc3c(cccc3-c3cncnc3)C2)N=C1N` (racemic) [(±)-5], the “evaluated to be active or functionally selective agonists of the α2C receptor subtype” value is listed as “active or functionally selective agonists”.

Take `NC1=NCC2(CCc3c(cccc3-c3cc(F)cc(F)c3)C2)O1` (racemic) [(±)-104]: the “evaluated to be active or functionally selective agonists of the α2C receptor subtype” value was “active or functionally selective agonists”.

As to `NC1=NCC2(CCc3c(cccc3-c3cncc(F)c3)C2)O1` (racemic) [(±)-108], the “evaluated to be active or functionally selective agonists of the α2C receptor subtype” value is reported as “active or functionally selective agonists”.

Take `NC1=NC[C@]2(CCc3c(cccc3-c3cncc(F)c3)C2)O1` (racemic) [compound 113]: the “evaluated to be active or functionally selective agonists of the α2C receptor subtype” value is recorded as “active or functionally selective agonists”.

As to `NC1=NC[C@]2(CCc3c(cccc3-c3cncnc3)C2)O1` [1f], the “evaluated to be active or functionally selective agonists of the α2C receptor subtype” value is reported as “active or functionally selective agonists”.

Take `NC1=NC[C@]2(CCc3c(cccc3-c3cc(F)cc(F)c3)C2)O1` [compound 112]: the “evaluated to be active or functionally selective agonists of the α2C receptor subtype” value is “active or functionally selective agonists”.
